Source: ChEMBL document CHEMBL1201862, “PubChem BioAssay data set” (2004)
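96-well plates; 48 h exposure; 5 concentrations. Endpoints by linear interpolation between flanking doses. Not reached: highest tested concentration assigned. GI50 marks 50% less growth.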 Active and inactive are the calls of the source. Cut-off read from the data, not from the text of the source: active = GI50 up to about 1.1 µM and inactive = higher.

Legend:
Assay in all cases: DTP human tumour cell line panel, 48 h
ACHN = tested on: ACHN
PC-3 = tested on: PC-3
UACC-257 = tested on: UACC-257
XF498 = tested on: XF498
UACC-62 = tested on: UACC-62
HOP-92 = tested on: HOP-92
HCC 2998 = tested on: HCC 2998
Malme-3M = tested on: Malme-3M
SW-620 = tested on: SW-620
IGROV-1 = tested on: IGROV-1
OVCAR-4 = tested on: OVCAR-4
SNB-78 = tested on: SNB-78
CAKI-1 = tested on: CAKI-1
NCI-H522 = tested on: NCI-H522
LXFL 529 = tested on: LXFL 529
HOP-62 = tested on: HOP-62
SR = tested on: SR
RPMI-8226 = tested on: RPMI-8226
HL-60 = tested on: HL-60
MDA-MB-231 = tested on: MDA-MB-231

SMILES | GI50 (ACHN) | GI50 (PC-3) | GI50 (UACC-257) | GI50 (XF498) | GI50 (UACC-62) | GI50 (HOP-92) | GI50 (HCC 2998) | GI50 (Malme-3M) | GI50 (SW-620) | GI50 (IGROV-1) | GI50 (OVCAR-4) | GI50 (SNB-78) | GI50 (CAKI-1) | GI50 (NCI-H522) | GI50 (LXFL 529) | GI50 (HOP-62) | GI50 (SR) | GI50 (RPMI-8226) | GI50 (HL-60) | GI50 (MDA-MB-231)
O=C(NCCCCCCCCNC(=O)c1cccc2ccccc12)c1cccc2ccccc12 | 17.1 µM (inactive) | > 100 µM (inactive) | > 93.1 µM (inactive) | 4.44 µM (inactive) | 21.2 µM (inactive) | 4.34 µM (inactive) | > 95.7 µM (inactive) | 44.8 µM (inactive) | > 100 µM (inactive) | 20.4 µM (inactive) | 4.01 µM (inactive) | 13.4 µM (inactive) | 18.2 µM (inactive) | 9.4 µM (inactive) | > 56.5 µM (inactive) | 4.07 µM (inactive) | > 100 µM (inactive) | > 100 µM (inactive) | > 100 µM (inactive) | –
Cn1c2c(c3ccccc31)CCN(CCCCN1CCN(c3ccccc3)CC1)C2=O | > 100 µM (inactive) | 11.7 µM (inactive) | 5.86 µM (inactive) | 14.1 µM (inactive) | 31.8 µM (inactive) | > 29.1 µM (inactive) | 5.62 µM (inactive) | 8.04 µM (inactive) | 22.8 µM (inactive) | > 76.6 µM (inactive) | 42.1 µM (inactive) | > 100 µM (inactive) | 56.4 µM (inactive) | 42 µM (inactive) | 33.9 µM (inactive) | 85.7 µM (inactive) | 8.93 µM (inactive) | 17 µM (inactive) | 7.78 µM (inactive) | > 10 µM (inactive)
COC1=C(N)C(=O)c2nc(C)ccc2C1=O | 1.77 µM (inactive) | – | 1.47 µM (inactive) | 1.51 µM (inactive) | 1.75 µM (inactive) | 9.95 µM (inactive) | 4.57 µM (inactive) | 1.77 µM (inactive) | 1.87 µM (inactive) | 9.98 µM (inactive) | 1.89 µM (inactive) | 3.52 µM (inactive) | 8.3 µM (inactive) | 1.74 µM (inactive) | 2.43 µM (inactive) | 1.57 µM (inactive) | 2.94 µM (inactive) | 5.21 µM (inactive) | 2.94 µM (inactive) | –
CC1=CC2=C(C)C3(CC3)[C@@](C)(O)C(=O)C2=C1 | 0.176 µM (active) | – | 0.237 µM (active) | 0.17 µM (active) | 0.21 µM (active) | 0.307 µM (active) | 0.178 µM (active) | 0.0933 µM (active) | > 1 µM (active) | 0.29 µM (active) | 0.174 µM (active) | 0.274 µM (active) | 0.269 µM (active) | 0.145 µM (active) | 0.223 µM (active) | 0.146 µM (active) | > 1 µM (active) | > 1 µM (active) | 0.135 µM (active) | –
CC(=O)OCC1OC(n2cc(F)c(=O)[nH]c2=O)C(OC(C)=O)C1OC(C)=O (stereo not given) | 12.9 µM (inactive) | 73.8 µM (inactive) | 47.3 µM (inactive) | 4.57 µM (inactive) | 17.5 µM (inactive) | 16.7 µM (inactive) | 7.1 µM (inactive) | 5.05 µM (inactive) | 9.86 µM (inactive) | 52.4 µM (inactive) | 30.3 µM (inactive) | > 100 µM (inactive) | 25.9 µM (inactive) | 16.6 µM (inactive) | 4.31 µM (inactive) | 44 µM (inactive) | 6.73 µM (inactive) | 19.8 µM (inactive) | 27.9 µM (inactive) | 34.6 µM (inactive)
